Where a name gives a salt, the structure may show the parent alone.
Assays:
[1] = tested on: Chemotherapeutic agent-caused constipation models of Balb/c mice; test: Relieving effect on constipation caused by a chemotherapeutic agent (Examples 202-364); assay type: in vivo; settings: compound intraperitoneal injection 150 mg/kg single
Text: Construction of mouse animal models: Chemotherapeutic agent-caused constipation models of Balb/c mice were constructed according to the administration mode and frequency of the chemotherapeutic agent as shown in Table 4. […] Thus, chemotherapeutic agent-caused constipation models of mice are very good models to mimic constipation caused by the chemotherapeutic agent.
Balb/c mice were fed for 1 week, and then divided into groups. The experiment was divided into a control group, a chemotherapeutic agent group, and a group of the compound as shown in Formula I, each of which comprised 10 mice, to perform the administration experiment, for which the administration dosage, mode, time and frequency were shown in Table 4. The control group: being injected or intragastrically administered with the same solvent as that used in the group of the compound as shown in Formula I (the administration mode and time were shown in Table 4), and then being injected or intragastrically administered with the same solvent as that used in the chemotherapeutic agent group (the administration mode was shown in Table 4); the chemotherapeutic agent group: being injected or intragastrically administered with the same solvent as that used in the group of the compound as shown in Formula I (the administration mode and time was shown in Table 4), and then being injected or intragastrically administered with the chemotherapeutic agent (the type, administration mode and dosage were shown in Table 4); the group of the compound as shown in Formula I: being injected or intragastrically administered with the compound as shown in Formula I (the administration mode and time was shown in Table 4), and then being administered with the chemotherapeutic agent (the administration mode and dosage were shown in Table 4).
(§1) The feces reduction rate was calculated with reference to the method of Ji Eun Kim (Lab Anim Res. 2016 December; 32(4): 231-240.). Feces reduction rate (%)=(the control group−the chemotherapeutic agent group or the group of the compound as shown in Formula I)/the control group*100%
(§2) It is regarded as effective remission when the feces reduction rate of mice in the group of the compound as shown in Formula I is reduced compared with that in the chemotherapeutic agent group.
(§3) The feces amount of mice within 3 hours was observed and recorded every day. At the end of the experiment, the number of mice in the group of the compound as shown in Formula I whose feces reduction rate was lower than that of mice in the chemotherapeutic agent group was recorded. Table 4 lists various animal experiment combinations of chemotherapeutic agents and the compound as shown in Formula I, as well as the corresponding experimental results.

[2] = tested on: Balb/c mice, constipation caused by continuous administration of a chemotherapeutic agent; test: Relieving effect on constipation caused by the continuous administration of a chemotherapeutic agent (Examples 385-405); assay type: in vivo; settings: Fluorouracil (5-Fu) 100 mg/kg intraperitoneal injection once a day for 5 days, compound 150 mg/kg intraperitoneal injection once a day for 5 days, experimental cycle 9 days
Text: Balb/c mice were fed for 1 week, and then divided into groups. The experiment was divided into a control group, a chemotherapeutic agent group, and a group of the compound as shown in Formula I, each of which comprised 10 mice, to perform the administration experiment, for which the administration dosage, mode, time and frequency were shown in Table 6. The control group: being injected or intragastrically administered with the same solvent as that used in the group of the compound as shown in Formula I (the administration mode and time were shown in Table 6), and then being injected or intragastrically administered with the same solvent as that used in the group of the compound as shown in Formula I (the administration mode was shown in Table 6); the chemotherapeutic agent group: being injected or intragastrically administered with the same solvent as that used in the group of the compound as shown in Formula I (the administration mode and time were shown in Table 6), and then being injected or intragastrically administered with the chemotherapeutic agent (the type, administration mode, time and dosage were shown in Table 6); the group of the compound as shown in Formula I: being injected or intragastrically administered with the compound as shown in Formula I (the administration mode and time were shown in Table 6), and then being administered with the chemotherapeutic agent (the type, administration mode, time and dosage were shown in Table 6).
as §1, §2
as §3, with “6” for “4”

CN1CCN(c2ccc(Nc3ncc4cc5n(c4n3)C3(CCCCC3)CNC5=O)nc2)CC1 [Compound I hydrochloride, Trilaciclib dihydrochloride]
Relative remission rate (%) ([1]; Example 315, Fluorouracil 125 (F) and irinotecan 240 (I) mg/kg intraperitoneal injection single, 0.5 h before chemotherapeutic agent, cycle 10 days): 20%
Relative remission rate (%) ([1]; Example 316, Fluorouracil 125 (F) and irinotecan 240 (I) mg/kg intraperitoneal injection single, 4 h before chemotherapeutic agent, cycle 10 days): 60%
Relative remission rate (%) ([1]; Example 317, Fluorouracil 125 (F) and irinotecan 240 (I) mg/kg intraperitoneal injection single, 12 h before chemotherapeutic agent, cycle 10 days): 40%
Relative remission rate (%) ([1]; Example 343, Fluorouracil 100 (F), oxaliplatin 5 (O), irinotecan 100 (I) and tetrahydrofolic acid 100 (L) mg/kg intravenous injection single, 0.5 h before chemotherapeutic agent, cycle 8 days): 30%
Relative remission rate (%) ([1]; Example 344, Fluorouracil 100 (F), oxaliplatin 5 (O), irinotecan 100 (I) and tetrahydrofolic acid 100 (L) mg/kg intravenous injection single, 12 h before chemotherapeutic agent, cycle 8 days): 70%
Relative remission rate (%) ([2]; Example 393, 0.5 h before the chemotherapeutic agent): 70%
Relative remission rate (%) ([2]; Example 394, 4 h before the chemotherapeutic agent): 50%
Relative remission rate (%) ([2]; Example 395, 12 h before the chemotherapeutic agent): 30%

From patent publication US20240285634A1, “COMPOUND AND METHOD FOR TREATING CHEMOTHERAPY-ASSOCIATED GASTROINTESTINAL SIDE EFFECTS” (ONQUALITY PHARMACEUTICALS CHINA LTD., priority 2021, published 2024)
